Source: patent publication US9693997B2, “Antiviral compounds” (priority 2013, dated 2017)
Where a name gives a salt, the structure may show the parent alone.

Tests used:
Experiment in all cases: microbe, parasite or virus in culture
[1] = test system: Pseudotyped HCV GT1b particles (HCVpp), entry into Huh7-high CD81 cells; type: cell-based, HCV GT1b Con1 strain; conditions: Hepatitis C virus, GT1B, 72 h, read-out: HCVpp GT-1b (EC50, μM)
[2] = test system: Pseudotyped HCV GT1a particles (HCVpp), entry into Huh7-high CD81 cells; type: cell-based, HCV GT1a H77 strain; conditions: Hepatitis C virus, 72 h, read-out: HCVpp GT-1a (EC50, μM)
[3] = test system: pseudotyped VSV G particles (VSVpp) in Huh7-high CD81 cells; type: cell-based, vesicular stomatitis virus; conditions: Vesicular stomatitis virus, 72 h, read-out: VSVpp (EC50, μM)

Structure (SMILES)	EC50 [1] [µM]	EC50 [2] [µM]	EC50 [3] [µM]
CN(C)S(=O)(=O)c1ccc(-c2c(Cl)cc(Nc3n[nH]c(N)n3)cc2C(F)(F)F)cc1 [Compound 185, 4′-(5-amino-1H-1,2,4-triazol-3-ylamino)-2′-chloro-N,N-dimethyl-6′-(trifluoromethyl)biphenyl-4-sulfonamide]	0.052	0.015	11.7
Nc1nc(Nc2cc(Cl)c(-c3ccc(NC(=O)CN4CCS(=O)(=O)CC4)cc3)c(C(F)(F)F)c2)n[nH]1 [Compound 240]	0.171	0.011	> 10
Nc1nc(Nc2cc(Cl)c(-c3ccc(OC(F)(F)F)cc3)c(Cl)c2)n[nH]1 [Compound 91, N-3-(2,6-Dichloro-4′-trifluoromethyoxy-biphenyl-4-yl)-1H[1,2,4]triazole-3,5-diamine]	1.13	0.065	23.3
Nc1nc(Nc2cc(Cl)c(-c3ccccc3)c(Cl)c2)n[nH]1 [Compound 48, N*3*-(2,6-Dichloro-biphenyl-4-yl)-1H-[1,2,4]triazole-3,5-diamine]	0.533	0.01	30.5
N#Cc1cccc(-c2c(Cl)cc(Nc3n[nH]c(N)n3)cc2Cl)c1 [Compound 103, 4′-(5-Amino-1H-[1,2,4]triazol-3-ylamino)-2′,6′-dichloro-biphenyl-3-carbonitrile]	0.269	0.025	13.3
CN(C)C(=O)c1cccc(-c2c(Cl)cc(Nc3n[nH]c(N)n3)cc2Cl)c1 [Compound 115, 4′-(5-Amino-1H-[1,2,4]triazol-3-ylamino)-2′,6′-dichloro-biphenyl-3-carboxylic acid dimethylamide]	0.107	0.007	34.8
CN(C)S(=O)(=O)c1ccc(-c2c(Cl)cc(Nc3n[nH]c(N)n3)cc2Cl)cc1 [Compound 123, 4′-(5-Amino-1H-[1,2,4]triazol-3-ylamino)-2′,6′-dichloro-biphenyl-4-sulfonic acid dimethylamide]	0.042	0.002	11
CNC(=O)c1ccc(-c2c(Cl)cc(Nc3n[nH]c(N)n3)cc2Cl)cc1 [Compound 116, 4′-(5-Amino-1H-[1,2,4]triazol-3-ylamino)-2′,6′-dichloro-biphenyl-4-carboxylic acid methylamide]	0.086	0.002	29.4
Nc1nc(Nc2cc(Cl)c(-c3cccc(Cl)c3)c(Cl)c2)n[nH]1 [Compound 92, N3-(2,3′,6-Trichlorobiphenyl-4-yl)-1H-1,2,4-triazole-3,5-diamine]	0.57	0.034	35.5
CS(=O)(=O)Nc1ccc(-c2c(F)cc(Nc3nc(N)n[nH]3)cc2C(F)(F)F)cc1 [Compound 242, N-[4′-(5-Amino-2H-[1,2,4]-triazol-3-ylamino)-6′-fluoro-2′-trifluoromethyl-biphenyl-4-yl]-methanesulfonamide]	0.113	0.061	> 10
CS(=O)(=O)NCc1ccc(-c2c(Cl)cc(Nc3n[nH]c(N)n3)cc2C(F)(F)F)cc1 [Compound 186, N-((4′-(5-amino-1H-1,2,4-triazol-3-ylamino)-2′-chloro-6′-(trifluoromethyl)biphenyl-4-yl)methyl)methanesulfonamide]	0.038	0.011	19.7
COc1ccc(-c2c(Cl)cc(Nc3n[nH]c(N)n3)cc2Cl)cc1 [Compound 98, N-3-(2,6-Dichloro-4′-methoxy-biphenyl-4-yl)-1H-[1,2,4]triazole-3,5-diamine]	0.353	0.01	5.25
CC(=O)c1ccc(-c2c(Cl)cc(Nc3n[nH]c(N)n3)cc2Cl)cc1 [Compound 107, 1-[4′-(5-Amino-1H-[1,2,4]triazol-3-ylamino)-2′,6′-dichloro-biphenyl-4-yl]-ethanone]	0.228	0.008	11.1
N#Cc1ccccc1-c1c(Cl)cc(Nc2n[nH]c(N)n2)cc1Cl [Compound 104, 4′-(5-Amino-1H-[1,2,4]triazol-3-ylamino)-2′,6′-dichloro-biphenyl-2-carbonitrile]	1.28	0.072	17.8
Nc1nc(Nc2cc(Cl)c(-c3ccc4c(c3)CC(=O)N4)c(Cl)c2)n[nH]1 [Compound 254]	0.051	0.003	12.9
CC(C)S(=O)(=O)c1ccc(-c2c(F)cc(Nc3n[nH]c(N)n3)cc2Cl)cc1 [Compound 23, N*3*-[2-Chloro-6-fluoro-4′-(propane-2-sulfonyl)-biphenyl-4-yl]-1H-[1,2,4]triazole-3,5-diamine]	0.092	0.023	> 10

Structure (SMILES)	EC50 [1] [µM]	EC50 [2] [µM]	EC50 [3] [µM]
Nc1nc(Nc2cc(Cl)c(-c3ccc(OCC4CNC4)cc3)c(Cl)c2)n[nH]1 [Compound 32, N*3*-[4′-(Azetidin-3-ylmethoxy)-2,6-dichloro-biphenyl-4-yl]-1H-[1,2,4]triazole-3,5-diamine; hydrochloride]	0.116	0.006	6.1
CS(=O)(=O)c1ccc(-c2c(Cl)cc(Nc3n[nH]c(N)n3)cc2C(F)(F)F)cc1 [Compound 187, N3-(2-chloro-4′-(methylsulfonyl)-6-(trifluoromethyl)biphenyl-4-yl)-1H-1,2,4-triazole-3,5-diamine]	0.046	0.016	1.58
Nc1nc(Nc2ccc(-c3ccc(NC(=O)CCCC[C@@H]4SC[C@@H]5NC(=O)N[C@@H]54)cc3)cc2)n[nH]1 (stereo in doubt) [Compound 54, 5-((3aS,4S,6aR)-2-Oxo-hexaneahydro-thieno[3,4-d]imidazol-4-yl)-pentanoic acid [4′-(5-amino-1H-[1,2,4]triazol-3-ylamino)-biphenyl-4-yl]-amide]	10	5.73	> 10
N#Cc1ccc(-c2c(Cl)cc(Nc3n[nH]c(N)n3)cc2Cl)cc1 [Compound 93, 4′-(5-Amino-1H-1,2,4-triazol-3-ylamino)-2′,6′-dichlorobiphenyl-4-carbonitrile]	0.364	0.015	14.8
N#Cc1cc(-c2c(Cl)cc(Nc3n[nH]c(N)n3)cc2Cl)ccc1Cl [Compound 105, 4′-(5-Amino-1H-[1,2,4]triazol-3-ylamino)-4,2′,6′-trichloro-biphenyl-3-carbonitrile]	0.472	0.039	16.8
Nc1nc(Nc2cc(Cl)c(-c3cccc(C(=O)O)c3)c(Cl)c2)n[nH]1 [Compound 106, 4′-(5-Amino-1H-[1,2,4]triazol-3-ylamino)-2′,6′-dichloro-biphenyl-3-carboxylic acid]	23.4	1.17	100
CS(=O)(=O)c1ccc(-c2c(Cl)cc(Nc3n[nH]c(N)n3)cc2Cl)cc1 [Compound 94, N3-(2,6-Dichloro-4′-(methylsulfonyl)biphenyl-4-yl)-1H-1,2,4-triazole-3,5-diamine]	0.174	0.007	2
Nc1nc(Nc2cc(Cl)c(-c3ccc(Cl)c(Cl)c3)c(Cl)c2)n[nH]1 [Compound 102, N-3-(2,6,3′,4′-Tetrachloro-biphenyl-4-yl)-1H-[1,2,4]triazole-3,5-diamine]	0.931	0.062	6.33
Nc1nc(Nc2cc(Cl)c(-c3ccc(S(=O)(=O)N4CCCC4)cc3)c(C(F)(F)F)c2)n[nH]1 [Compound 170, N3-(2-chloro-4′-(pyrrolidin-1-ylsulfonyl)-6-(trifluoromethyl)biphenyl-4-yl)-1H-1,2,4-triazole-3,5-diamine]	0.026	0.02	14.1
Nc1nc(Nc2cc(Cl)c(-c3ccc(N4CCCS4(=O)=O)cc3)c(Cl)c2)n[nH]1 [Compound 289, N-3-[2,6-Dichloro-4′-(1,1-dioxo-1,6-isothiazolidin-2-yl)-biphenyl-4-yl]-1H-[1,2,4]triazole-3,5-diamine]	0.046	0.002	17.8
Nc1nc(Nc2cc(Cl)c(-c3ccc(S(=O)(=O)N[C@H]4CC[C@H](O)CC4)cc3)c(C(F)(F)F)c2)n[nH]1 [Compound 184, 4′-(5-amino-1H-1,2,4-triazol-3-ylamino)-2′-chloro-N-(trans-4-hydroxycyclohexyl)-6′-(trifluoromethyl)biphenyl-4-sulfonamide]	0.05	0.028	> 10
CS(=O)(=O)c1cccc(-c2c(F)cc(Nc3nc(N)n[nH]3)cc2C(F)(F)F)c1 [Compound 74, N^5-(2-Fluoro-3′-(methylsulfonyl)-6-trifluoromethylbiphenyl-4-yl)-1H-[1,2,4]-triazole-3,5-diamine]	0.169	0.055	16.9
CNS(=O)(=O)c1ccc(-c2c(Cl)cc(Nc3n[nH]c(N)n3)cc2Cl)cc1 [Compound 118, 4′-(5-Amino-1H-[1,2,4]triazol-3-ylamino)-2′,6′-dichloro-biphenyl-4-sulfonic acid methylamide]	0.013	0.004	4.24
COc1cc(-c2c(Cl)cc(Nc3n[nH]c(N)n3)cc2C(F)(F)F)ccc1S(=O)(=O)NC(C)(C)C [Compound 179, 4′-(5-amino-1H-1,2,4-triazol-3-ylamino)-N-tert-butyl-2′-chloro-3-methoxy-6′-(trifluoromethyl)biphenyl-4-sulfonamide]	0.02	0.002	8.55
Nc1nc(Nc2cc(Cl)c(-c3ccc(Cl)cc3)c(Cl)c2)n[nH]1 [Compound 96, N-3-(2,6,4′-Trichloro-biphenyl-4-yl)-1H-[1,2,4]triazole-3,5-diamine]	0.927	0.009	4.27
